Results from patent US9849097B2, “Dosage forms containing terbutaline sulphate” (Jagotec AG, priority 2012, dated 2017).

Columns and labels:
[1] = accelerated stability study on the drug; format: physicochemical; details: 60° C. and 90% relative humidity for up to 4 weeks
Experimental: Thus, in the development of a terbutaline sulphate dosage form, the applicant carried out accelerated stability studies on the drug at a temperature of 60° C. and 90% relative humidity for up to 4 weeks.

[2] = oxidative degradation, aqueous solutions; cited from earlier work

Row | degradation products [1] | SMILES | stability of drug substance [2]
1 | No degradation products were observed | CC(C)(C)NCC(O)c1cc(O)cc(O)c1 (centres unmarked) [terbutaline sulphate] | 
2 |  | CC(C)(C)NCC(O)c1cc(O)cc(O)c1 (centres unmarked) [terbutaline] | highly stable
